Data as given in patent publication US8895585B2, “Nicotinamide derivative or salt thereof” (FUJIFILM Corporation, priority 2010, dated 2014).

Columns and labels:
THP-1 cells [1] = test: TNFα generation assay; assay type: cell-based, human; conditions: Table 22, read-out: IC50 in TNFα generation assay
Method in brief: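 THP-1 cells differentiated to macrophage-like cells with 10 ng/ml IFN-γ for 2 days, preincubated with compound 30 min at room temperature, then cultured 7 h on plates coated with human IgG (10 μg/ml). Secreted TNFα measured by ELISA or AlphaLISA.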

[2] = molecular target: T1, glutathione S-transferase (GST)-fused full-length human Syk protein (Homo sapiens, UniProt P43405); test: Syk enzyme assay; assay type: biochemical; conditions: Syk enzyme assay, Test Example 1; read-out: IC50 of Syk-inhibitory activity
T1 construct: (GST)-fused full-length human Syk protein; GST (glutathione S-transferase); purchased Carna Biosciences
Method in brief: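 IC50 values come from a time-resolved FRET readout (615 and 665 nm) of substrate phosphorylation, measured after an EDTA stop and 1 h antibody binding. The kinase reaction ran 40 min at room temperature with 27 μM ATP and 0.4 μM biotin-peptide, following a 15 min compound preincubation with baculovirus-made GST-full-length human Syk.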

THP-1 cells [3] = test: Antibody-dependent phagocytosis assay; assay type: cell-based; conditions: Homo sapiens; THP-1 cells induced to differentiate with IFNγ; opsonized Escherichia coli; Table 23; read-out: IC50 upon phagocytosis inhibition
Method: THP-1 cells (2×10^5 cells/ml) which are human monocyte-like cell line were cultured in the presence of 10 ng/ml IFNγ for 2 days, so that the cells were induced to differentiate into macrophage-like cells. THP-1 cells that had been induced to differentiate were collected. The cells (5×10^4 cells/well) were reacted with test compounds having given concentrations at room temperature for 30 minutes. Thereafter, Escherichia coli (Life Technologies) labeled with a pH-sensitive dye (pHrodo) was subjected to opsonization using an anti-Escherichia coli antibody (Molecular Probes). Then, the resultant was added to THP-1 cells mixed with test compounds that had been induced to differentiate, followed by incubation at 37° C. for 3 hours. At the time of addition of opsonized Escherichia coli, cell-permeable fluorescent dye (Calcein AM) were simultaneously added thereto, and phagocytosis of opsonized Escherichia coli in viable cells was quantitatively determined using an IN Cell Analyzer.
In addition, the following are used in Table 23 to denote standards for evaluating IC50 upon phagocytosis inhibition. • A: Up to 1 μM • B: 1 to 3 μM • C: 3 to 6 μM

[4] = Homo sapiens, THP-1, THP-1 cells

| IC50 (THP-1 cells [1]; THP-1 cells) [nM] | IC50 [2] [nM] | IC50 (THP-1 cells [3]) [nM] | IC50 (THP-1 cells [1]; [4]) [nM] | Compound |
| --- | --- | --- | --- | --- |
|  | < 10 | 1000 to 3000 | < 65 | CC[C@@H](Nc1nc(Nc2ccc3c(cnn3CC)c2)c(C(N)=O)cc1F)[C@H](C)N [Example 006-211, 6-(((2S,3R)-2-aminopentan-3-yl)amino)-2-((1-ethyl-1H-indazol-5-yl)amino)-5-fluoronicotinamide] |
|  | < 10 | 1000 to 3000 | < 65 | CCC[C@@H](Nc1nc(Nc2ccnc(OC)c2)c(C(N)=O)cc1F)[C@H](C)N [Example 006-249, 6-(((2S,3R)-2-aminohexan-3-yl)amino)-5-fluoro-2-((2-methoxypyridin-4-yl)amino)nicotinamide] |
|  | < 10 | 1000 to 3000 | < 65 | CC[C@@H](Nc1nc(Nc2ccc3c(OC)nccc3c2)c(C(N)=O)cc1F)[C@H](C)N [Example 006-263, 6-(((2S,3R)-2-aminopentan-3-yl)amino)-5-fluoro-2-((1-methoxyisoquinolin-6-yl)amino)nicotinamide] |
|  | 10 to 50 | 1000 to 3000 | 65 to 130 | CCC[C@@H](Nc1nc(Nc2cncc(F)c2)c(C(N)=O)cc1F)[C@H](C)N [Example 006-301, 6-(((2S,3R)-2-aminohexan-3-yl)amino)-5-fluoro-2-((5-fluoropyridin-3-yl)amino)nicotinamide] |
|  | < 10 | < 1000 | < 65 | CCn1ncc2cc(Nc3nc(N[C@@H](CN)CC(C)C)c(F)cc3C(N)=O)ccc21 [Example 006-322, (R)-6-((1-amino-4-methylpentan-2-yl)amino)-2-((1-ethyl-1H-indazol-5-yl)amino)-5-fluoronicotinamide] |
|  | < 10 | 1000 to 3000 | < 65 | CCn1ncc2cc(Nc3nc(N[C@H](CC4CC4)[C@H](C)N)c(F)cc3C(N)=O)ccc21 [Example 006-342, 6-(((2R,3S)-3-amino-1-cyclopropylbutan-2-yl)amino)-2-((1-ethyl-1H-indazol-5-yl)amino)-5-fluoronicotinamide] |
|  | < 10 | 1000 to 3000 | < 65 | CC(C)C[C@@H](Nc1nc(Nc2ccc3c(cnn3C)c2)c(C(N)=O)cc1F)[C@H](C)N [Example 006-383, 6-(((2S,3R)-2-amino-5-methylhexan-3-yl)amino)-5-fluoro-2-((1-methyl-1H-indazol-5-yl)amino)nicotinamide] |
|  | < 10 | < 1000 | < 65 | CCn1ncc2cc(Nc3nc(N[C@H](CC(C)C)[C@H](C)N)c(F)cc3C(N)=O)ccc21 [Example 006-384, 6-(((2S,3R)-2-amino-5-methylhexan-3-yl)amino)-2-((1-ethyl-1H-indazol-5-yl)amino)-5-fluoronicotinamide] |

More lines, now with the values behind:

| Compound | IC50 (THP-1 cells [1]; THP-1 cells) [nM] | IC50 [2] [nM] | IC50 (THP-1 cells [3]) [nM] | IC50 (THP-1 cells [1]; [4]) [nM] |
| --- | --- | --- | --- | --- |
| COCCOc1ccc2cc(Nc3nc(N[C@@H]4CCCC[C@@H]4N)c(F)cc3C(N)=O)cnc2c1 [Example 006-173, 6-(((1R,2S)-2-aminocyclohexyl)amino)-5-fluoro-2-((7-(2-methoxyethoxy)quinolin-3-yl)amino)nicotinamide] | 65 to 130 | < 10 | 1000 to 3000 |  |
| Cc1cc(Nc2nc(N[C@@H](CN)CC(C)C)c(F)cc2C(N)=O)cnc1C [Example 006-177, (R)-6-((1-amino-4-methylpentan-2-yl)amino)-2-((5,6-dimethylpyridin-3-yl)amino)-5-fluoronicotinamide] |  | < 10 | 1000 to 3000 | 130 to 200 |
| CCC[C@@H](Nc1nc(Nc2cncc(-n3cccn3)c2)c(C(N)=O)cc1F)[C@H](C)N [Example 006-219, 2-((5-(1H-pyrazol-1-yl)pyridin-3-yl)amino)-6-(((2S,3R)-2-aminohexan-3-yl)amino)-5-fluoronicotinamide] |  | < 10 | 1000 to 3000 | 65 to 130 |
| CC[C@@H](Nc1nc(Nc2cncc(-c3ccccc3F)c2)c(C(N)=O)cc1F)[C@H](C)N [Example 006-257, 6-(((2S,3R)-2-aminopentan-3-yl)amino)-5-fluoro-2-((5-(2-fluorophenyl)pyridin-3-yl)amino)nicotinamide] |  | < 10 | 1000 to 3000 | < 65 |
| CC[C@@H](Nc1nc(Nc2cncc(-c3ccccc3)c2)c(C(N)=O)cc1F)[C@H](C)N [Example 006-270, 6-(((2S,3R)-2-aminopentan-3-yl)amino)-5-fluoro-2-((5-phenylpyridin-3-yl)amino)nicotinamide] |  | < 10 | 1000 to 3000 | < 65 |
| CC[C@@H](Nc1nc(Nc2cncc(-c3cccc(OC)c3F)c2)c(C(N)=O)cc1F)[C@H](C)N [Example 006-278, 6-(((2S,3R)-2-aminopentan-3-yl)amino)-5-fluoro-2-((5-(2-fluoro-3-methoxyphenyl)pyridin-3-yl)amino)nicotinamide] |  | < 10 | 1000 to 3000 | < 65 |
| CCCOc1cc(Nc2nc(N[C@H](CCC)[C@H](C)N)c(F)cc2C(N)=O)ccn1 [Example 006-311, 6-(((2S,3R)-2-aminohexan-3-yl)amino)-5-fluoro-2-((2-propoxypyridin-4-yl)amino)nicotinamide] |  | < 10 | 1000 to 3000 | 65 to 130 |
| C[C@H](N)[C@H](Nc1nc(Nc2ccc3ncccc3c2)c(C(N)=O)cc1F)C1CC1 [Example 006-368, 6-(((1R,2S)-2-amino-1-cyclopropylpropyl)amino)-5-fluoro-2-((quinolin-6-yl)amino)nicotinamide] |  | < 10 | < 1000 | < 65 |
| Cc1ncc(Nc2nc(N[C@@H]3CCCC[C@@H]3N)c(F)cc2C(N)=O)cc1-n1nccn1 [Example 006-375, 6-(((1R,2S)-2-aminocyclohexyl)amino)-5-fluoro-2-((6-methyl-5-(2H-1,2,3-triazol-2-yl)pyridin-3-yl)amino)nicotinamide] |  | < 10 | 1000 to 3000 | 65 to 130 |
| Cc1ncc(Nc2nc(N[C@@H]3CCCC[C@@H]3N)c(F)cc2C(N)=O)cc1-c1ccco1 [Example 006-376, 6-(((1R,2S)-2-aminocyclohexyl)amino)-5-fluoro-2-((5-(furan-2-yl)-6-methylpyridin-3-yl)amino)nicotinamide] |  | < 10 | 1000 to 3000 | < 65 |
| COc1ncc(Nc2nc(N[C@@H]3CCCC[C@@H]3N)c(F)cc2C(N)=O)cc1-n1nccn1 [Example 006-377, 6-(((1R,2S)-2-aminocyclohexyl)amino)-5-fluoro-2-((6-methoxy-5-(2H-1,2,3-triazol-2-yl)pyridin-3-yl)amino)nicotinamide] |  | < 10 | 1000 to 3000 | < 65 |
| NC(=O)c1cc(F)c(N[C@@H]2CCCC[C@@H]2N)nc1Nc1cnc(N2CCOCC2)c(F)c1 [Example 006-395, 6-(((1R,2S)-2-aminocyclohexyl)amino)-5-fluoro-2-((5-fluoro-6-morpholinopyridin-3-yl)amino)nicotinamide] |  | 10 to 50 | 1000 to 3000 | 65 to 130 |
| CCOc1nccc(Nc2nc(N[C@@H]3CCCC[C@@H]3N)c(F)cc2C(N)=O)c1F [Example 006-433, 6-(((1R,2S)-2-aminocyclohexyl)amino)-2-((2-ethoxy-3-fluoropyridin-4-yl)amino)-5-fluoronicotinamide] |  | < 10 | 1000 to 3000 | 65 to 130 |
